{"source": "patent US7842279B2", "about": "“F-18 peptides for pre targeted positron emission tomography imaging” (Immunomedics, Inc., priority 2005, dated 2010)", "system": "LS174T human colon adenocarcinoma", "test": "PET imaging of human colon cancer tissue in nude mice", "type": "in vivo", "details": "female athymic nu/nu mice, s.c. LS174T xenograft, 20 μCi i.v.", "method": "A humanized MN-14 IgG antibody is prepared as described in U.S. Pat. No. 6,676,924. ^18F-labeled bisulfite addition complex is prepared as described in Example 8 and is linked to the humanized MN-14 IgG by reductive amination with sodium cyanoborohydride using standard techniques (see, e.g., Gray, 1978, Meth. Enzymol. 50:155-160.). Alternatively, an antibody or antibody fragment is directly labeled with [^18F]Fluorobenzaldehyde in the presence of hydroxylamine, thiosemicarbazide or hydrazine. Gel-permeation column chromatography is used to separated the 4-[^18F]Fluorobenzaldehyde/hMN-14 immunoconjugate from unconjugated 4-[^18F]Fluorobenzaldehyde bisulfite addition complex. The 4-[^18F]Fluorobenzaldehyde/hMN-14 immunoconjugate is used to localize human colon cancer tissue in nude mice. At 4-5 weeks female athymic mice (nu/nu, Harlan, Indianapolis, Ind.) are injected s.c. with 0.2 ml of a 10% suspension of LS174T human colon adenocarcinoma prepared from a xenograft serially propagated in an athymic mouse (Sharkey et al., Cancer Res., 50: 828-34 (1990)). After waiting 2 weeks for tumor development, the mice are injected i.v. with 20 μCi of 4-[^18F]Fluorobenzaldehyde/hMN-14 immunoconjugate. Tumor tissue is imaged by PET imaging, using standard ^18F detection methods."}
{"substance": "4-[^18F]Fluorobenzaldehyde/hMN-14 immunoconjugate", "values": [{"measurement": "tumor detection by PET imaging (F-18 distribution)", "result": "detected as hot spots of F-18 distribution against a low-level background of F-18"}]}
